Read-outs that look alike come from different tables or passages of the source.
[1] = compared with crystals of fluoxetine HCl

| SMILES | dissolution rate (Example 1 cocrystal) | dissolution rate [1] |
| --- | --- | --- |
| CNCCC(Oc1ccc(C(F)(F)F)cc1)c1ccccc1.Cl.O=C(O)c1ccccc1 (stereo not drawn) [fluoxetine HCl:benzoic acid, fluoxetine HCl:benzoic acid (1:1)] | relatively slow | lower dissolution rate |
| CNCCC(Oc1ccc(C(F)(F)F)cc1)c1ccccc1.Cl.O=C(O)CCC(=O)O (stereo not drawn) [fluoxetine HCl:succinic acid, fluoxetine HCl:succinic acid (2:1)] | – | faster dissolution rate |
